Test results reported in US20080003438A1, “Heterocyclic siloxanes for use in biocidal coatings and materials” (Auburn University, priority 2002, published 2008).

Test: Laundry washing cycles (AATCC Test Method 61, Test 2A), chlorine loading after washing
Type: physicochemical
Details: for Average Chlorine Loading %: cotton
Protocol: Finally, a wash test was performed on swatches of cotton containing the monomer 3-triethoxysilylpropyl-5,5-dimethylhydantoin coating and the polysiloxane coating, each chlorinated and unchlorinated, for comparison purposes. Two treatment baths were prepared, one containing an 8% solution of 3-triethoxysilylpropyl-5,5-dimethylhydantoin in a 50% solution of ethanol in water, the other containing an 8% solution of siloxane polymer prepared as described above in a 66.7% solution of ethanol in water. Identical cotton swatches were soaked in the two baths for 2.5 minutes at ambient temperature, cured in air at 130° C. for 20 minutes, soaked in 1.5% liquid detergent at ambient temperature for 15 minutes, rinsed thoroughly with water, and dried in air at 50° C. for 30 minutes. Then one-half of the swatches of each type were chlorinated by soaking them in 5% CLOROX at ambient temperature for 45 minutes. These chlorinated samples were rinsed thoroughly with water and dried in air at 50° C. for 30 minutes to remove all occluded free chlorine. Iodometric/thiosulfate titrations were performed on representative samples to determine initial chlorine loadings. The average chlorine loading for the silane monomer-coated samples was 0.61%; for the siloxane polymer-coated samples, the average chlorine loading was 0.40%. Then all types of coated swatches were subjected to laundry washing cycles using AATCC Test Method 61 (Test 2A Procedure). Samples were evaluated after 5, 10, and 50 washing cycles for retention of the coatings. Those samples not chlorinated before washing were chlorinated by the procedure described above in order to assess how much chlorine could be loaded after variable numbers of washing cycles. Those chlorinated before washing were divided into two groups with half being assessed for chlorine loading without rechlorination, the other half being rechlorinated and then assessed for chlorine loading. Three observations are clearly evident from the data in Table 3. First, both the silane and the siloxane coatings are partially lost upon successive washings. Second, prechlorination reduces the rate of loss, probably due to increasing the hydrophobicity of the surface, thus reducing the rate of hydrolysis loss of the siloxane coatings. Third, the siloxane coating, which is not chlorinated to as high a level as the silane one upon initial chlorination, is lost at a slower rate than is the silane coating. For all of the coatings, at least partial biocidal efficacy would be regenerated upon rechlorination after 50 washing cycles. Most probably, a low concentration of bleach added to washing cycles should maintain biocidal activity of the cotton material for the lifetime of the material.
Finally, 100% cotton fabric swatches were tested. In this case 10 mL of the refluxed solution of polymer (the solid was not isolated) were mixed with 100 mL of a 50% ethanol/50% water solution in a beaker. The cotton swatches (7 g) were soaked in the solution for 3 minutes, then partially dried in air at ambient temperature, and then cured at 150° C. for 30 minutes. After soaking in 5% CLOROX for 20 minutes, the swatches were rinsed and dried at ambient temperature. The average chlorine loading of several swatches was determined by iodometric/thiosulfate titration to be 0.438% Cl. Then the other treated swatches were subjected to laundry washing cycles using AATCC Test Method 61 (Test 2A Procedure) followed by analytical determination of chlorine loading as a function of the number of wash cycles. After 5, 10, and 50 wash cycles the chlorine loadings averaged 0.282%, 0.279%, and 0.165%, respectively.

SMILES: CCO[Si](CCCN1C(=O)NC(C)(C)C1=O)(OCC)OCC [3-triethoxysilylpropyl-5,5-dimethylhydantoin]
- bound chlorine retained (cotton cloth, after 50 wash cycles): about 34%
- Average Chlorine Loading % (chlorination before washing No, after washing Yes, 5 washing cycles): 0.26%
- Average Chlorine Loading % (chlorination before washing No, after washing Yes, 10 washing cycles): 0.15%
- Average Chlorine Loading % (chlorination before washing No, after washing Yes, 50 washing cycles): 0.03%
- Average Chlorine Loading % (chlorination before washing Yes, after washing No, 5 washing cycles): 0.42%
- Average Chlorine Loading % (chlorination before washing Yes, after washing No, 10 washing cycles): 0.41%
- Average Chlorine Loading % (chlorination before washing Yes, after washing No, 50 washing cycles): 0.10%
- Average Chlorine Loading % (chlorination before washing Yes, after washing Yes, 5 washing cycles): 0.394%
- Average Chlorine Loading % (chlorination before washing Yes, after washing Yes, 10 washing cycles): 0.388%
- Average Chlorine Loading % (chlorination before washing Yes, after washing Yes, 50 washing cycles): 0.133%
